The test system of assay [1] is genotype 1b (Con1) stable HCV replicon in Huh-7-derived cells. Description: Stable subgenomic HCV replicon EC50, genotype 1b (Renilla luciferase). The assay is classed as cell-based, hepatitis C virus. The note with it: Hepatitis C virus, stable replicon genotype 1b, 72 h, read-out: EC50 1B RLUC. Summed up: (§1)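 Compounds, three-fold diluted, were applied to Huh-7-derived cells harbouring luciferase replicons (genotype 1a H77, 1b Con1, 2a JFH-1, 4a ED43, with strain-specific adaptive mutations). Seventy-two hours later, intracellular replication was gauged by Renilla luciferase activity and EC50 derived by regression.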
A general note: A replicon is a self-replicating genome or part of one, used to study replication in cells.

Assay [2] addresses HCV NS3 protease domain genotype 3a (Hepatitis C virus genotype 3a, UniProt Q81258). Description: Ki determination, NS3 protease genotype 3a (fluorogenic depsipeptide substrate). To be noted: 200 pM enzyme, NS4A peptide. It counts as biochemical. From the text:
Purified NS3 protease domain (amino acids 1-181) of the genotype 1b and 3a virus were generated as above. The internally quenched fluorogenic depsipeptide substrate Ac-DED(Edans)-EEAbuΨ[COO]ASK(Dabcyl)-NH2 and a synthetic peptide containing the hydrophobic core residues of the NS4A protein cofactor ([…]; NS4A peptide) were obtained from Anaspec, Inc. (San Jose, Calif.). Other chemicals and biochemicals were of reagent grade or better and were purchased from standard suppliers.
Reactions were run at room temperature in buffer consisting of 50 mM HEPES, 40% glycerol, 0.05% Triton X-100, 10 mM DTT, and 10% DMSO. The final assay solutions contained 50 pM NS3 genotype 1 b protease or 200 pM genotype 3a protease, 20 μM NS4A peptide, and 4 μM substrate (genotype 1b) or 2 μM substrate (genotype 3a). Inhibitor concentrations varied from 100 nM to 5 pM in 3-fold dilutions, and no-inhibitor controls were included.
Compound dilutions were made in DMSO at 20× final concentration. Reaction mixtures were prepared in 96-well assay plates. A solution of enzyme and NS4A peptide in assay buffer (25 μL volume with both reagents at 4× final concentration) was mixed with 45 μL assay buffer and 5 μL of either inhibitor or DMSO, and pre-incubated at room temperature for 1 hour. The reaction was started by addition of 25 μL substrate solution at 4× final concentration. Plates were mixed vigorously for 5-10 seconds and reactions were allowed to proceed for 90 minutes, fluorescence was measured every 30 s between 90 and 120 minutes reaction time using a Tecan InfiniTe M1000 or PerkinElmer Envision multimode plate reader with an excitation wavelength of 340 nm and an emission wavelength of 490 nm.
Rates were calculated from the progress curves at steady state, in the time frame of 90-120 minutes after addition of substrate. To determine the Ki, rates were plotted as a function of inhibitor concentration, and the data were fit with equation 1 (Morrison, J. F., Biochimica et Biophysica Acta 1969, 185, 269-286) to calculate Ki^app using GraphPad Prism 5. Active fraction of enzyme was determined by active site titration with known potent inhibitors. Ki was calculated from Ki^app/(1+[[S]/Km]).

For assay [3], the system named is genotype 1a (H77) stable HCV replicon in Huh-7-derived cells. Description: Stable subgenomic HCV replicon EC50, genotype 1a (Renilla luciferase). The assay is classed as cell-based, hepatitis C virus. The note with it: Hepatitis C virus, stable replicon genotype 1a, 72 h, read-out: EC50 1A RLUC. The procedure, abridged:
as §1

Assay [4] has as its system genotype 4a (ED43) stable HCV replicon in Huh-7-derived cells. Description: Stable subgenomic HCV replicon EC50, genotype 4a (Renilla luciferase). It counts as cell-based, hepatitis C virus. The note with it: Hepatitis C virus, 72 h, read-out: EC50 4A RLUC. The procedure, abridged:
as §1

In assay [5] the test system is genotype 3a (S52) stable HCV replicon in Huh-7-derived cells. Description: Stable subgenomic HCV replicon EC50, genotype 3a (Renilla luciferase). It counts as cell-based, hepatitis C virus. To be noted: Hepatitis C virus, 72 h, read-out: EC50 3A RLUC.
For assay [6], the system named is genotype 2a (JFH-1) stable HCV replicon in Huh-7-derived cells. Put plainly: Stable subgenomic HCV replicon EC50, genotype 2a (Renilla luciferase). It counts as cell-based, hepatitis C virus. The note with it: Hepatitis C virus, stable replicon genotype 2a, 72 h, read-out: EC50 2A RLUC. The procedure, abridged: as §1
Assay [7] deals with genotype 3a (S52) wild type transient HCV replicon in Huh-7-derived cells. Description: Transient-transfected HCV replicon EC50, genotype 3a wild type. It counts as cell-based, hepatitis C virus. The note with it: Hepatitis C virus, 72 h, read-out: EC50 3A WT.
Assay [8] relates to genotype 1a NS3/4a protease inhibitor resistant variant R155K transient HCV replicon in Huh-7-derived cells. Description: Transient-transfected HCV replicon EC50, genotype 1a R155K. The assay is classed as cell-based, hepatitis C virus. The note with it: Hepatitis C virus, 72 h, read-out: EC50 1A R155K, transient-transfected replicon genotype 1a R155K resistant variant, 72 h.
The test system of assay [9] is genotype 1b (Con1) wild type transient HCV replicon in Huh-7-derived cells. Description: Transient-transfected HCV replicon EC50, genotype 1b wild type. It counts as cell-based, hepatitis C virus. To be noted: Hepatitis C virus, 72 h, read-out: EC50 1B WT.
The subject of assay [10] is genotype 1a (H77) wild type transient HCV replicon in Huh-7-derived cells. Description: Transient-transfected HCV replicon EC50, genotype 1a wild type. The assay is classed as cell-based, hepatitis C virus. To be noted: Hepatitis C virus, 72 h, read-out: EC50 1A WT.
Assay [11] concerns genotype 1b NS3/4a protease inhibitor resistant variant D168A transient HCV replicon in Huh-7-derived cells. Description: Transient-transfected HCV replicon EC50, genotype 1b D168A. It counts as cell-based, hepatitis C virus. To be noted: Hepatitis C virus, 72 h, read-out: EC50 1B D168A, transient-transfected replicon genotype 1b D168A resistant variant, 72 h.
Where [12] appears, read: transient-transfected replicon genotype 3a wild type.
The mark [13] stands for this setting: transient-transfected replicon genotype 1b wild type.
[14] abbreviates: transient-transfected replicon genotype 1a wild type.

Like-named read-outs stand apart in the source and are kept apart here.

As usually defined, the EC50 is the concentration needed to bring the measured effect to its halfway point. As a reminder, the Ki is the equilibrium dissociation constant of an inhibitor or competing ligand from its target. The low end stands for tighter binding, the high end for weaker binding.

HCV NS3 protease domain genotype 3a, sequence (Q81258 whole entry, looked up, the tested form may be a part): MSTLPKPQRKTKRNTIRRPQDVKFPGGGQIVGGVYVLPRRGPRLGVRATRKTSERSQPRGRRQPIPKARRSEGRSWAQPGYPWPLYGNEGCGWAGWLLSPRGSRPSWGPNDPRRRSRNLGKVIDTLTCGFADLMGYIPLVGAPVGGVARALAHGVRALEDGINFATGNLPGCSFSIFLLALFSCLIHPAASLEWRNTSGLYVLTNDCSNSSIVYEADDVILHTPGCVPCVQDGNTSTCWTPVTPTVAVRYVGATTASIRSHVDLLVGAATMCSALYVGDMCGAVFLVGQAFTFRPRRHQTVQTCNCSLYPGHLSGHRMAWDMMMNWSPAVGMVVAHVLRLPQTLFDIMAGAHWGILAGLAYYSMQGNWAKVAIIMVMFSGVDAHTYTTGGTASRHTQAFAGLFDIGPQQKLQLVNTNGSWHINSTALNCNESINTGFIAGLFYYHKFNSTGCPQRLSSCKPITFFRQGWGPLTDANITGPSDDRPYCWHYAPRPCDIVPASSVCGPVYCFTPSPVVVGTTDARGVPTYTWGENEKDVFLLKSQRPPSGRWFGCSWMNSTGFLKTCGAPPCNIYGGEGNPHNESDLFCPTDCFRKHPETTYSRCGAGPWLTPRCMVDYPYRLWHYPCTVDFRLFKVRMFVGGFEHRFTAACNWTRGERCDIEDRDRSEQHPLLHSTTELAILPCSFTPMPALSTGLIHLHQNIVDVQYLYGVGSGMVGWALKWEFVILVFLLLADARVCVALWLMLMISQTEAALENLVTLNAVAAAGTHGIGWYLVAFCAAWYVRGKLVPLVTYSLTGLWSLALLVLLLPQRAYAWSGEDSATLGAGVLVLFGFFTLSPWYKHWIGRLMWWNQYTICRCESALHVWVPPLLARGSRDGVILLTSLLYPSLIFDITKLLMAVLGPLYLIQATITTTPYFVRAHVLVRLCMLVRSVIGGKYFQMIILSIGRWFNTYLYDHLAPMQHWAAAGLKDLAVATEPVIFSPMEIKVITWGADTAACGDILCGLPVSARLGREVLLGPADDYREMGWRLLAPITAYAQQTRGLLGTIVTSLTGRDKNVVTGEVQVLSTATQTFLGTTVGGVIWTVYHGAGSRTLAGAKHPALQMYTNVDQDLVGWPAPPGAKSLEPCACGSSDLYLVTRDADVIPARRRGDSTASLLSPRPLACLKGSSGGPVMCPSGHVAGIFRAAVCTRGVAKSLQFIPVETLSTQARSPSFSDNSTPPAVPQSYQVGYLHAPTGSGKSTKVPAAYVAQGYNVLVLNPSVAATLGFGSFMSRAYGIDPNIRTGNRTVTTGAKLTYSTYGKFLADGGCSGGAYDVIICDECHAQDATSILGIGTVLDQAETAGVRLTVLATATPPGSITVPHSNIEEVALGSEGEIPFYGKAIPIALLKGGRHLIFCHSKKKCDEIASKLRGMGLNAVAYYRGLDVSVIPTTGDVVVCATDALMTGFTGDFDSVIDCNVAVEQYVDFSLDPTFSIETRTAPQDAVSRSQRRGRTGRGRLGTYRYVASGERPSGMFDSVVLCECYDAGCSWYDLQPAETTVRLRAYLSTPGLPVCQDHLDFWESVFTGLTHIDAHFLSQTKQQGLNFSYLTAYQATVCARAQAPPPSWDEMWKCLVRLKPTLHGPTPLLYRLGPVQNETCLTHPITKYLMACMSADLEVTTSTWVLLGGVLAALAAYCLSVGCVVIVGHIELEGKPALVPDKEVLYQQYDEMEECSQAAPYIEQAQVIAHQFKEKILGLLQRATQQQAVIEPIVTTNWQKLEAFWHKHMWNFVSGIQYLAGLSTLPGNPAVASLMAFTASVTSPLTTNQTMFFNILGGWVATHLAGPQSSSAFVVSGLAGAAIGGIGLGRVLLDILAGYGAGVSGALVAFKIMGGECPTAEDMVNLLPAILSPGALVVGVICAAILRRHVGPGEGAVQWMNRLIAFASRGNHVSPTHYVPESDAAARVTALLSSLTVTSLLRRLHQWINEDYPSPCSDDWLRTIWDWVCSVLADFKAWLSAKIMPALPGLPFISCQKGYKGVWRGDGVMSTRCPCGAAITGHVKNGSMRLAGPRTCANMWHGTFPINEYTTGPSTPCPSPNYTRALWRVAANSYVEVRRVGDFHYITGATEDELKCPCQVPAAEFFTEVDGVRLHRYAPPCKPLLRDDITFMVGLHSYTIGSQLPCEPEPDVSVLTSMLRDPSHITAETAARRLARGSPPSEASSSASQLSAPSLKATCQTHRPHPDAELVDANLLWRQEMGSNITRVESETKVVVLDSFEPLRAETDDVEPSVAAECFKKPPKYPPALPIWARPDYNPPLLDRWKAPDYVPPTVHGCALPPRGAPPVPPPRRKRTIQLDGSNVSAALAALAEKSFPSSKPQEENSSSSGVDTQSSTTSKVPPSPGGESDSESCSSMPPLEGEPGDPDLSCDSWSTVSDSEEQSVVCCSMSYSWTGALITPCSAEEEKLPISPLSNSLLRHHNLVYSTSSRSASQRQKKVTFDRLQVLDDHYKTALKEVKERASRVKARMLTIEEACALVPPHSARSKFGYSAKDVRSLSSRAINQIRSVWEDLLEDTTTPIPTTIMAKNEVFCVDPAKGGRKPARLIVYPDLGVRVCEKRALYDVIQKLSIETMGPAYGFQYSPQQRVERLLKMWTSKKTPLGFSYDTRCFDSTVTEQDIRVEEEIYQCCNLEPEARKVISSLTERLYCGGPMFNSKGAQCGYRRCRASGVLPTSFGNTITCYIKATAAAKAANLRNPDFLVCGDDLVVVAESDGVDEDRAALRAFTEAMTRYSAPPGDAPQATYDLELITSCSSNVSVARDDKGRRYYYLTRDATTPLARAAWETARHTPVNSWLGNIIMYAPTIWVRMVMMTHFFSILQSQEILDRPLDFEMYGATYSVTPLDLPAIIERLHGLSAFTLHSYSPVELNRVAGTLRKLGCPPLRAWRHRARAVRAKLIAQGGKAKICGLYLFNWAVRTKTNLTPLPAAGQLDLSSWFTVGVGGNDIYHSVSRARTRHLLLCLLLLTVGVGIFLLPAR

Regarding `CC[C@@H]1[C@@H]2CN(C(=O)[C@H](C3CCCCC3)NC(=O)O[C@@H]3C[C@H]3CCCCCc3nc4ccc(OC)cc4nc3O2)[C@@H]1C(=O)N[C@]1(C(=O)NS(=O)(=O)C2(C)CC2)C[C@H]1C(F)F` [Example 16, (1aR,5S,8S,9S,10R,22aR)-5-cyclohexyl-N-[(1R,2R)-2-(difluoromethyl)-1-{[(1-methylcyclopropyl)sulfonyl]carbamoyl}cyclopropyl]-9-ethyl-14-methoxy-3,6-dioxo-1,1a,3,4,5,6,9,10,18,19,20,21,22,22a-tetradecahydro-8H-7,10-methanocyclopropa[18,19][1,10,3,6]dioxadiazacyclononadecino[11,12-b]quinoxaline-8-carboxamide], the EC50 in assay [1] stood at 7.4 nM; in assay [3], 12 nM; in assay [4], 8.1 nM; in [5], 201 nM; in assay [6], 6.2 nM. Besides, the affinity in assay [2] corresponds to a Ki of 0.21 nM.
For the compound `COc1ccc2nc3c(nc2c1)O[C@H]1CN(C(=O)[C@H](C(C)(C)C)NC(=O)O[C@@H]2C[C@H]2CCCCC3)[C@H](C(=O)N[C@]2(C(=O)NS(=O)(=O)C3(C)CC3)C[C@H]2C(F)F)[C@@H]1C` [Example 18, (1aR,5S,8S,9S,10R,22aR)-5-tert-butyl-N-[(1R,2R)-2-(difluoromethyl)-1-{[(1-methylcyclopropyl)sulfonyl]carbamoyl}cyclopropyl]-14-methoxy-9-methyl-3,6-dioxo-1,1a,3,4,5,6,9,10,18,19,20,21,22,22a-tetradecahydro-8H-7,10-methanocyclopropa[18,19][1,10 3,6]dioxadiazacyclononadecino[11,12-b]quinoxaline-8-carboxamide], the EC50 was 2.6 nM in assay [1]; 3.9 nM in assay [3]; 2.8 nM in assay [4]; 70 nM in assay [5]; 5 nM in assay [6]. For the same compound, in assay [2], the affinity, expressed as Ki, was 0.1 nM.
For `COc1ccc2nc3c(nc2c1)O[C@H]1CN(C(=O)[C@H](C(C)(C)C)NC(=O)O[C@@H]2C[C@@H]4C[C@@H]4[C@H]2CCCCC3)[C@H](C(=O)N[C@]2(C(=O)NS(=O)(=O)C3CC3)C[C@H]2CC(F)F)[C@@H]1C` [Example 57, (1aS,2aR,6S,9S,10S,11R,23aR,23bS)-6-tert-butyl-N-[(1R,2S)-1-[(cyclopropylsulfonyl)carbamoyl]-2-(2,2-difluoroethyl)cyclopropyl]-15-methoxy-10-methyl-4,7-dioxo-1a,2,2a,4,5,6,7,10,11,19,20,21,22,23,23a,23b-hexadecahydro-1H,9H-8,11-methanocyclopropa[4′,5′]cyclopenta[1′,2′:18,19][1,10,3,6]dioxadiazacyclononadecino[11,12-b]quinoxaline-9-carboxamide], the EC50 in assay [7] was found to be 54 nM; in [1], 11 nM; in assay [8] it was 17 nM; in assay [9], 7.5 nM; in [3], 12 nM; in assay [10] it was 12 nM. The EC50 in [4] came to 4.9 nM; in [11], 48 nM; in assay [5], 166 nM; in assay [6], 21 nM.
Consider `CC[C@@H]1[C@@H]2CN(C(=O)[C@H](C(C)(C)C)NC(=O)O[C@@H]3C[C@H]3CCCCCc3nc4ccc(OC)cc4nc3O2)[C@@H]1C(=O)N[C@]1(C(=O)NS(=O)(=O)C2(F)CC2)C[C@H]1C(F)F` [Example 74, (1aR,5S,8S,9S,10R,22aR)-5-tert-butyl-N-[(1R,2R)-2-(difluoromethyl)-1-{[(1-fluorocyclopropyl)sulfonyl]carbamoyl}cyclopropyl]-9-ethyl-14-methoxy-3,6-dioxo-1,1a,3,4,5,6,9,10,18,19,20,21,22,22a-tetradecahydro-8H-7,10-methanocyclopropa[18,19][1,10,3,6]dioxadiazacyclononadecino[11,12-b]quinoxaline-8-carboxamide], for which the EC50 in assay [7] (setting [12]) amounted to 138 nM; in [1] it was 5 nM; in assay [8] it was 44 nM; in assay [9] (setting [13]) it was 2.1 nM; in assay [3] it was 8 nM; in assay [10] (setting [14]), 8.8 nM. In addition, the EC50 is 8.3 nM in [4], 56 nM in [11], 374 nM in assay [5] and 18 nM in [6].
In the case of `C=C[C@@H]1C[C@]1(NC(=O)[C@@H]1[C@H](CC)[C@@H]2CN1C(=O)[C@H](C(C)(C)C)NC(=O)O[C@@H]1C[C@H]1CCCCCc1nc3ccc(OC)cc3nc1O2)C(=O)NS(=O)(=O)C1CC1` [Example 91, (1aR,5S,8S,9S,10R,22aR)-5-tert-butyl-N-{(1R,2S)-1-[(cyclopropylsulfonyl)carbamoyl]-2-ethenylcyclopropyl}-9-ethyl-14-methoxy-3,6-dioxo-1,1a,3,4,5,6,9,10,18,19,20,21,22,22a-tetradecahydro-8H-7,10-methanocyclopropa[18,19][1,10,3,6]dioxadiazacyclononadecino[11,12-b]quinoxaline-8-carboxamide], the EC50 in assay [7] (setting [12]) came to 25 nM; in assay [1], 1.9 nM; in assay [8] it was 3.5 nM; in assay [9] (setting [13]), 1.3 nM; in assay [3] it was 2.4 nM; in [10] (setting [14]), 2.3 nM. Also, the EC50 in assay [4] was found to be 2.4 nM; in assay [11], 9.2 nM; in [5] it was 149 nM; in assay [6] it was 4 nM.
As to `C[C@@H]1[C@@H]2CN(C(=O)[C@H](C(C)(C)C)NC(=O)O[C@@H]3C[C@@H]4C[C@@H]4[C@H]3CCCCC(F)(F)c3nc4ccccc4nc3O2)[C@@H]1C(=O)N[C@]1(C(=O)NS(=O)(=O)C2(C)CC2)C[C@H]1C(F)F` [Example 82, (1aS,2aR,6S,9S,10S,11R,23aR,23bS)-6-tert-butyl-N-[(1R,2R)-2-(difluoromethyl)-1-{[(1-methylcyclopropyl)sulfonyl]carbamoyl}cyclopropyl]-19,19-difluoro-10-methy-4,7-dioxo-1a,2,2a,4,5,6,7,10,11,19,20,21,22,23,23a,23b-hexadecahydro-1H,9H-8,11-methanocyclopropa[4′,5′]cyclopenta[1′,2′:18,19][1,10,3,6]dioxadiazacyclononadecino[11,12-b]quinoxaline-9-carboxamide], the EC50 in [7] (setting [12]) stood at 16 nM; in [1], 9.3 nM; in [8], 6.2 nM; in [9] (setting [13]), 4.1 nM; in assay [3], 8.5 nM; in assay [10] (setting [14]), 7.8 nM. The EC50 in [4] was determined as 10 nM; in assay [11], 5.7 nM; in [5], 25 nM; in assay [6] it was 4.7 nM.
